Values belong to the compound of their own block, whether it stands above or below them.
How the values were obtained:
[1] = Pharmacokinetics assay in rats after intragastrical administration; type: in vivo, Sprague-Dawley (SD) rats; details: SD rats, intragastric, 2 mg/kg; for AUC / Cmax / Vd/F / CL/F / half-life / MRT: both sexes, Sprague-Dawley, rat, plasma, po; for AUC: read-out: Area Under Curve AUC; for Cmax: read-out: Plasma Concentration Cmax; for Vd/F: read-out: Apparent Distribution Volume Vz/F; for CL/F: read-out: Clearance CLz/F; for half-life: read-out: Half-Life T½ (converted); for MRT: read-out: Mean Residence Time MRT
Text: Test Example 3. Pharmacokinetics Assay of the Compounds of the Present Invention
Rats were used as test animals. […] The pharmacokinetic behavior of the compounds of the present invention was studied and evaluated in rats.
56 healthy adult Sprague-Dawley (SD) rats, half male and half female, were purchased from SINO-BRITSH SIPPR/BK LAB. ANIMAL LTD., CO, with License No.: SCXK (Shanghai) 2008-0016.
2.3 Preparation of the Test Compounds
A certain amount of the test compound was weighed, and added with 5% by volume of DMSO, 5% by volume of Tween 80 and 90% normal saline to prepare a 0.2 mg/mL colorless, clear and transparent solution.
After an overnight fast, SD rats were intragastrically administered at a dose of 2.0 mg/kg and an administration volume of 10.0 mL/kg.
Blood (0.2 mL) was taken from the orbital sinus before administration and at 0.5, 1.0, 2.0, 4.0, 6.0, 8.0, 11.0 and 24.0 hours after administration. The samples were stored in heparin anticoagulation tubes, and centrifuged for 10 minutes at 3500 rpm at 4° C. to separate the blood plasma. The plasma samples were stored at −20° C. The rats were fed 2 hours after administration.
The content of the test compound in the plasma of rats after intragastric administration of different concentrations of the drug was determined: 25 μL of rat plasma at each time after administration was taken and added with 30 μL (100 ng/mL) of the internal standard solution of camptothecin and 200 μL of acetonitrile, shaken vertically for 5 minutes, and centrifuged for 10 minutes (4000 rpm). 3.0 μL of the supernatant was taken from the plasma samples for LC/MS/MS analysis.
4. Results of Pharmacokinetic Parameters
Pharmacokinetic parameters of the compounds of the present invention in rats are shown below.

human blood = experiment: In vitro anticoagulant effect on human blood (APTT, CT2); details: concentration corresponding to 2 times the APTT of the blank control, human plasma
Experimental: Test Example 2: Determination of In Vitro Anticoagulant Effect of the Compounds of the Present Invention on Human Blood
(§1) 1. Experimental Materials
Plasma: Human blood was collected in blood collection tubes containing no anticoagulant, and then 3.8% sodium citrate (volume ratio 1:9) was added. The tubes were centrifuged at 2500 rpm for 10 minutes at room temperature, and then the plasma was collected and stored at −80° C.;
Reagents: APTT reagent (Activated partial thromboplastin time assay kit, SIEMENS, Art. No. B4218-1), calcium chloride solution;
Instrument: Coagulation instrument (SYSMEX, CA-500).
The divided plasma was melted at room temperature and mixed well. 10000 μM the test compound dissolved in 100% DMSO was diluted to 3000, 300, 200, 150, 75, 30, 10, 3, 0.3 μM with 100% DMSO, and the blank was 100% DMSO. The reagent, plasma, and compound were placed in corresponding positions in the coagulation instrument, and APTT detection of the compound was carried out.
Curve fitting was carried out by graphpad and CT2 was calculated, i.e., the concentration of the compound corresponding to 2 times the APTT of the blank control.

[2] = target: Coagulation Factor XIa protease (Homo sapiens (Human), UniProt P03951); experiment: Inhibition of Factor XIa detected by absorption photometry; type: biochemical; details: absorbance at 405 nm, 10 minutes at 37° C.
Sequence of Coagulation Factor XIa protease (P03951 388-625): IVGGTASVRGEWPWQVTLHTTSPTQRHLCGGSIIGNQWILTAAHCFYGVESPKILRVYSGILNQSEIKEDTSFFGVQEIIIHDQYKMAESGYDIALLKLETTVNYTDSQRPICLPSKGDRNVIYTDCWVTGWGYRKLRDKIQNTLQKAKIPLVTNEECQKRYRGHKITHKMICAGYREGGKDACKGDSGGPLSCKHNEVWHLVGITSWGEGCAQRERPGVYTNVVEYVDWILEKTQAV
Sequence of Coagulation Factor XIa protease (P03951 19-387 partner): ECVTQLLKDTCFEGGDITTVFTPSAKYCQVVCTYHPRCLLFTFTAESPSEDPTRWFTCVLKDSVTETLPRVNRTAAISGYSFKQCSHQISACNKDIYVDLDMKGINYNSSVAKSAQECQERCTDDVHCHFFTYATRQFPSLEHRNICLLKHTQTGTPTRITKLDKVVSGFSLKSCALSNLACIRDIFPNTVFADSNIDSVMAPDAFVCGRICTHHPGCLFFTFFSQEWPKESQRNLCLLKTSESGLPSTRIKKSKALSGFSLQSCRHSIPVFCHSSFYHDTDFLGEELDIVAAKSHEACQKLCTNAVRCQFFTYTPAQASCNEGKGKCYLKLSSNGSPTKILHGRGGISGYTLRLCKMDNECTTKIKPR
Experimental: Test Example 1: Biological Activity of the Compounds of the Present Invention on
The Inhibition of Factor XIa Detected by Absorption Photometry
as §1
Enzyme: Coagulation Factor XIa protease (Abcam, Art. No ab62411)
Substrate: Coagulation Factor XIa specific substrate (HYPHEN1310 med, Art. No. Biophen cs-21(66))
2. Experimental Procedure
20 mM of test compound dissolved in 100% DMSO was diluted to 200, 20, 2, 0.2, 0.02, 0.002 μM with 100% DMSO; 1 μl of the compound was added to each well in a 384-well plate, blank and control wells were replaced with DMSO. The plate was centrifuged to remove the compound to the bottom. 10 μl (2.5 μg/ml) of FXIa enzyme solution was added to each well, and 10 μl of buffer was added to the blank well. The plate was centrifuged to remove the enzyme solution to the bottom.
Finally, 10 μl of 2 mM substrate were added to each well, and the plate was centrifuged to remove the substrate solution to the bottom.
The plate was incubated for 10 minutes at 37° C.; and then the absorbance was measured at 405 nm.

Compound: COc1cn([C@@H](Cc2ccncc2)C(=O)Nc2ccc(C(=O)O)cc2)c(=O)cc1-c1cc(Cl)ccc1C#N [Comparative Example 1, (S)-4-(2-(4-(5-chloro-2-cyanophenyl)-5-methoxy-2-oxopyridin-1(21)-yl)-3-(pyridin-4-yl)propanamido)benzoic acid, reference compound]
AUC [1]: 7.27 ± 3.37 ng·h/mL | Cmax [1]: 7.02 ± 2.97 ng/mL

Compound: COc1cn([C@@H](CCOC(C)(C)C)C(=O)Nc2ccc3nccnc3c2)c(=O)cc1-c1cc(Cl)ccc1-c1nc(C)no1 [Comparative Example 2, (S)-4-(tert-butoxy)-2-(4-(5-chloro-2-(3-methyl-1,2,4-oxadiazol-5-yl)phenyl)-5-methoxy-2-oxopyridin-1 (2H)-yl)-N-(quinoxalin-6-yl)butanamide, reference compound]
CT2, concentration doubling APTT (human blood; Table 3 comparison): 13.1 µM

Compound: COc1cn([C@H](Cc2ccccc2)C(=O)Nc2ccc(C(=O)O)cc2)c(=O)cc1-c1cc(Cl)ccc1C(C)=O [Example 6, (R)-4-(2-(4-(2-acetyl-5-chlorophenyl)-5-methoxy-2-oxopyridin-1(2H)-yl)-3-phenylpropanamido)benzoic acid]
CT2, concentration doubling APTT (human blood; Table 2): >10000 µM

Compound: COc1cn(C(Cc2ccccc2)C(=O)Nc2ccc(C(=O)O)cc2F)c(=O)cc1-c1cc(Cl)ccc1C(C)=O (stereo not drawn) [Example 29, 4-(2-(4-(2-acetyl-5-chlorophenyl)-5-methoxy-2-oxopyridin-1 (2H)-yl)-3-phenylpropanamido)-3-fluorobenzoic acid]
IC50 [2]: 90 nM | Vd/F [1]: 45.4 ± 16.5 L/kg | AUC [1]: 382 ± 98 ng·h/mL | CL/F [1]: 92.5 ± 28.3 mL/min/kg | half-life [1]: 364 ± 179 min | MRT [1]: 5 ± 2.57 h | Cmax [1]: 167 ± 45 ng/mL

Compound: CCC(=O)c1ccc(Cl)cc1-c1cc(=O)n(C(Cc2ccn(C3CC3)n2)C(=O)Nc2ccc(C(=O)O)cc2)cc1OC (stereo not drawn) [Example 91, 4-(2-(4-(5-chloro-2-propionylphenyl)-5-methoxy-2-oxopyridin-1 (2H)-yl)-3-(1-cyclopropyl-1H-pyrazol-3-yl)propanamido)benzoic acid]
CT2, concentration doubling APTT (human blood; Table 2): 2.1 µM

Compound: CCC(=O)c1ccc(Cl)cc1-c1cc(=O)n([C@@H](Cc2ccn(C3CC3)n2)C(=O)Nc2ccc(C(=O)O)cc2)cc1OC [Example 92, (S)-4-(2-(4-(5-chloro-2-propionylphenyl)-5-methoxy-2-oxopyridin-1 (2H)-yl)-3-(1-cyclopropyl-1H-pyrazol-3-yl)propanamido)benzoic acid]
CT2, concentration doubling APTT (human blood; Table 2): 1.2 µM

Compound: CCC(=O)c1ccc(Cl)cc1-c1cc(=O)n([C@H](CCOC(C)(C)C)C(=O)Nc2ccc(C(=O)O)cc2)cc1OC [Example 109, (R)-4-(4-(tert-butoxy)-2-(4-(5-chloro-2-propionylphenyl)-5-methoxy-2-oxopyridin-1(2H)-yl)butanamido)benzoic acid]
CT2, concentration doubling APTT (human blood; Table 2): >10000 µM

Compound: COc1cn(C(CCOC2CCC2)C(=O)Nc2ccc(C(=O)O)cc2)c(=O)cc1-c1cc(Cl)ccc1C(C)=O (stereo not drawn) [Example 162, 4-(2-(4-(2-acetyl-5-chlorophenyl)-5-methoxy-2-oxopyridin-1(2H)-yl)-4-cyclobutoxybutanamido)benzoic acid]
IC50 [2]: 35 nM

Compound: [2H]C([2H])([2H])Oc1cn([C@@H](CCOC(C)(C)C)C(=O)Nc2ccc(C(=O)O)cc2)c(=O)cc1-c1cc(Cl)ccc1C(=O)CC [Example 177, 4-[[(2S)-4-tert-butoxy-2-[4-(5-chloro-2-propionyl-phenyl)-2-oxo-5-(trideuteromethoxy)-1-pyridyl]butyryl]amino]benzoic acid]
CT2, concentration doubling APTT (human blood; Table 2): 1.5 µM

Compound: [2H]C([2H])([2H])Oc1cn([C@H](CCOC(C)(C)C)C(=O)Nc2ccc(C(=O)O)cc2)c(=O)cc1-c1cc(Cl)ccc1C(=O)CC [Example 178, 4-[[(2R)-4-tert-butoxy-2-[4-(5-chloro-2-propionyl-phenyl)-2-oxo-5-(trideuteromethoxy)-1-pyridyl]butyryl]amino]benzoic acid]
CT2, concentration doubling APTT (human blood; Table 2): >10000 µM

Compound: [2H]C([2H])([2H])Oc1cn([C@@H](Cc2ccccc2)C(=O)Nc2ccc(C(=O)O)cc2)c(=O)cc1-c1cc(Cl)ccc1C(C)=O [Example 179, 4-[[(2S)-2-[4-(2-acetyl-5-chloro-phenyl)-2-oxo-5-(trideuteromethoxy)-1-pyridyl]-3-phenyl-propionyl]amino]benzoic acid]
CT2, concentration doubling APTT (human blood; Table 2): 3.3 µM

Second part, the compound after the results:

IC50 [2]: 42 nM | AUC difference, Example 84 versus Comparative Example 1 [1]: 7.5 times | Cmax difference, Example 84 versus Comparative Example 1 [1]: 6.9 times | Vd/F [1]: 37.9 ± 8.23 L/kg | AUC [1]: 54.6 ± 19.1 ng·h/mL | CL/F [1]: 673 ± 235 mL/min/kg | half-life [1]: 40.8 ± 8.4 min | MRT [1]: 1.2 ± 0.2 h | Cmax [1]: 48.8 ± 8.8 ng/mL
Compound: COc1cn([C@@H](Cc2cccnc2)C(=O)Nc2ccc(C(=O)O)cc2)c(=O)cc1-c1cc(Cl)ccc1C(C)=O [Example 84, (S)-4-(2-(4-(2-acetyl-5-chlorophenyl)-5-methoxy-2-oxopyridin-1(2H)-yl)-3-(pyridin-3-yl)propanamido)benzoic acid]

IC50 [2]: 92 nM
Compound: COc1cn(C(CC2CC2)C(=O)Nc2ccc(C(=O)O)cc2)c(=O)cc1-c1cc(Cl)ccc1C(C)=O (stereo not drawn) [Example 167, 4-(2-(4-(2-acetyl-5-chlorophenyl)-5-methoxy-2-oxopyridin-1(2H)-yl)-3-cyclopropylpropanamido)benzoic acid]

IC50 [2]: 43 nM
Compound: COc1cn([C@@H](CC2CC2)C(=O)Nc2ccc(C(=O)O)cc2)c(=O)cc1-c1cc(Cl)ccc1C(C)=O [Example 168, (S)-4-(2-(4-(2-acetyl-5-chlorophenyl)-5-methoxy-2-oxopyridin-1(2H)-yl)-3-cyclopropylpropanamido)benzoic acid]

IC50 [2]: 35 nM | Vd/F [1]: 6.24 ± 2.15 L/kg | AUC [1]: 701 ± 175 ng·h/mL | CL/F [1]: 49.9 ± 12.5 mL/min/kg | half-life [1]: 87 ± 19.2 min | MRT [1]: 1.71 ± 0.32 h | Cmax [1]: 462 ± 116 ng/mL
Compound: COc1cn([C@@H](CC2CCC2)C(=O)Nc2ccc(C(=O)O)cc2)c(=O)cc1-c1cc(Cl)ccc1C(C)=O [Example 171, (S)-4-(2-(4-(2-acetyl-5-chlorophenyl)-5-methoxy-2-oxopyridin-1(2H)-yl)-3-cyclobutylpropanamido)benzoic acid]

IC50 [2]: 8920 nM
Compound: COc1cn([C@H](CC2CCC2)C(=O)Nc2ccc(C(=O)O)cc2)c(=O)cc1-c1cc(Cl)ccc1C(C)=O [Example 172, (R)-4-(2-(4-(2-acetyl-5-chlorophenyl)-5-methoxy-2-oxopyridin-1(2H)-yl)-3-cyclobutylpropanamido)benzoic acid]

IC50 [2]: 100 nM
Compound: COc1cn(C(CC2CC(C)(C)C2)C(=O)Nc2ccc(C(=O)O)cc2)c(=O)cc1-c1cc(Cl)ccc1C(C)=O (stereo not drawn) [Example 173, 4-(2-(4-(2-acetyl-5-chlorophenyl)-5-methoxy-2-oxopyridin-1(2H)-yl)-3-(3,3-dimethylcyclobutyl)propanamido)benzoic acid]

IC50 [2]: 71 nM
Compound: COc1cn(C(CC2CCCCO2)C(=O)Nc2ccc(C(=O)O)cc2)c(=O)cc1-c1cc(Cl)ccc1C(C)=O (stereo not drawn) [Example 176]

Reference: patent publication US10633375B2, “Oxopicolinamide derivative, preparation method therefor and pharmaceutical use thereof” (Jiangsu Hengrui Medicine Co., Ltd., priority 2016, dated 2020)
